Source: patent US9266872B2, “2-hydroxyarylamide derivative or pharmaceutically acceptable salt thereof, preparation method thereof, and pharmaceutical composition for preventing or treating cancer containing same as active ingredient” (KOREA RESEARCH INSTITUTE OF BIOSCIENCE AND BIOTECHNOLOGY, priority 2011, dated 2016)
Where two headings read alike, the source gives them in different places.

Legend:
[1] = target: T1, TMPRSS4 serine protease (Homo sapiens, UniProt Q9NRS4); assay: Inhibitory effect on TMPRSS4 serine protease activity using peptide substrate; format: biochemical; conditions: kallikrein peptide substrate 100 μM, DMSO negative control; for inhibition at 10 µM / Intracellular protease activity Inhibition % 10 uM: 10 uM compound; for inhibition at 10 µM: read-out: Intracellular protease activity Inhibition % 10 uM; for Intracellular protease activity Inhibition % 30 uM / inhibition at 30 µM: 30 uM compound; for inhibition at 30 µM: read-out: Intracellular protease activity Inhibition % 30 uM; for inhibition at 100 µM: 100 uM compound, read-out: Intracellular protease activity Inhibition % 100 uM
T1 construct: TMPRSS4 serine protease domain (205th Val˜437th Leu) was cloned in pET21b/NdeI-XhoI; inferred from pET21b XhoI cloning and Ni-NTA purification) (C); made in house; host or cells: E. coli BL21 (DE3)
T1 sequence (Q9NRS4 205-437): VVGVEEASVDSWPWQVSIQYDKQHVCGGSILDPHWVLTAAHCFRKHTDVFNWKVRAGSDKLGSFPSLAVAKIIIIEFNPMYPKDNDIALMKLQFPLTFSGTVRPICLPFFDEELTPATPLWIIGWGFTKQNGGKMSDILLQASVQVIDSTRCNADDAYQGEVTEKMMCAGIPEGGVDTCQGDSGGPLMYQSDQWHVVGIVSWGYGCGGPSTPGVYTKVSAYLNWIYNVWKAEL
Experimental: TMPRSS4 serine protease domain (205th Val˜437th Leu) was cloned in pET21b/NdeI-XhoI, which was introduced in E. coli BL21 (DE3). At this time, FlagX2-enterokinase cleavage site ([…]; total 15 amino acids) was inserted in N-terminal of TMPRSS4 serine protease domain as shown in FIG. 1. The forward and reverse primers for PCR used for the cloning were presented by SEQ. ID. NO: 1 and NO: 2.
The cells were cultured in 10 ml of LB containing ampicillin at 37° C. overnight. IL of LB+ampicillin was added thereto, followed by further culture until OD reached 0.6˜0.8. 0.1 mM IPTG was added thereto, followed by further culture for 16 hours. Cell pellet was obtained, purified by Ni-NTA (Qiagen), and dialyzed. TMPRSS4 serine protease (pro-form) labeled with 2 mg of 2Xflag-enterokinase cleavage site was conjugated to Ni-NTA resin (4°, overnight). Enterokinase (NEB) was treated thereto at the concentration of 0.0002%/w/w at room temperature for 5 hours. The sample was washed, eluted with 50 mM imidazole in 20 mM of sodium phosphate buffer, and then dialyzed.
The protein activity was evaluated by measuring fluorescence shown during hydrolysis of the peptide. […] Reaction was induced after adding 100 μM of the peptide substrate into reaction buffer (50 mM Tris-HCl (pH 8.0), 10 mM CaCl2, 1 μM ZnCl2). Then, fluorescence was measured at 5 minutes interval (excitation 385 nm, emission 455 nm).
Then, fluorescence (excitation 385 nm/emission 455 nm) was measured at 5 minutes interval for 150 minutes. […] Dimethylsulfoxide (DMSO) was used as the negative control.

[2] = system: TMPRSS4 over-expressing colorectal cancer cell line SW480; assay: Inhibitory effect on infiltration of cancer cells over-expressing TMPRSS4 (matrigel trans-well); format: cell-based; conditions: Homo sapiens, read-out: Inhibition rate of target-expressing colorectal cancer cell activity (%, 0.1~2 uM)
Experimental: The cells were distributed in a 6-well plate at the density of 3×10^5 cells/well, followed by transfection. 48 hours later, the medium was replaced with a selection medium (800 μg/ml G418 medium). G418-resistant clone was separated, followed by culture for 2 weeks, during which selection was performed.
The cancer cell line constructed in step 1 was distributed in a 24-well trans-well plate (8 μm pore size; Costar, USA) whose porous membrane was coated with 100 μl of matrigel (BD Biosciences, USA) diluted with serum-free medium at the concentration of 250 μg/ml, which stood at room temperature for 1 hour for solidification. Lower chamber of the trans-well plate was coated with 100 μl of collagen type I (Sigma) at the concentration of 20 μg/ml. […] While culturing the cells in a 37, 5% CO2 incubator for 48 hours, cell migration from the upper chamber to lower chamber was allowed. […] The excessive crystal violet solution was washed away with distilled water. The migrated cell number was counted from 5 randomly selected areas (×200). The experiment was repeated at least twice under the same condition, and the representative result was presented.
The inhibitory effect of each compound on the infiltration of TMPRSS4 over-expressing colorectal cancer cell line SW480 was calculated by Mathematical Formula 1, which presents the number of infiltrated cells with % by the number of infiltrated cells in the negative control treated with DMSO. Infiltration Inhibition Rate (%)=100−Infiltrated cell number with the treatment of each compound/Infiltrated cell number with the treatment of DMSO×100 [Mathematical Formula 1]

[3] = 0.8 uM, SW480 over-expressing TMPRSS4, 48 hours
[4] = SW480 over-expressing TMPRSS4, 48 hours

inhibition at 10 µM [1] [%]	inhibition at 30 µM [1] [%]	Intracellular protease activity Inhibition % 10 uM [1] [%]	inhibition at 100 µM [1] [%]	Compound	inhibition at 0.1 µM [2, 4] [%]	other results
26	47 to 100	–	–	N#Cc1ccc(NC(=O)c2cc(Cl)ccc2O)nc1 [Example 37, 5-chloro-N-(5-cyano-pyridine-2-yl)-2-hydroxy-benzamide]	–	Intracellular protease activity Inhibition % 30 uM [1]: 63%; inhibition at 5 µM ([2]; 5 uM, SW480 over-expressing TMPRSS4, 48 hours): 44%
51 to 100	96	58	–	O=C(Nc1cc(C(F)(F)F)cc(C(F)(F)F)c1)c1cc2ccccc2cc1O [Example 8, N-(3,5-bis(trifluoromethyl)phenyl)-2-hydroxy-3-naphthaamide]	–	inhibition at 0.8 µM [2, 3]: 72%
–	8	–	75	O=C(Nc1cnc2ccccc2c1)c1cc(Cl)ccc1O [Example 25, 5-chloro-2-hydroxy-N-quinoline-3-yl-benzamide]	–	inhibition at 25 µM ([2]; 25 uM, SW480 over-expressing TMPRSS4, 48 hours): 51%
–	91	–	98	O=C(Nc1nc(-c2ccccc2)cs1)c1cc(Cl)ccc1O [Example 53, 5-chloro-2-hydroxy-N-(4-phenylthiazole-2-yl)benzamide]	34	inhibition at 1 µM ([2]; 1 uM, SW480 over-expressing TMPRSS4, 48 hours): 56%
–	92	–	100	N#Cc1ccc(NC(=O)c2cc(Cl)ccc2O)c(Cl)c1 [Example 27, 5-chloro-N-(2-chloro-4-cyano-phenyl)-2-hydroxy-benzamide]	–	inhibition at 2 µM ([2]; 2 uM, SW480 over-expressing TMPRSS4, 48 hours): 54%
51 to 100	94	51	–	Cc1c(C(F)(F)F)cc(NC(=O)c2cc(Cl)ccc2O)cc1C(F)(F)F [Example 33, 5-chloro-2-hydroxy-N-(4-methyl-3,5-bis(trifluoromethyl)phenyl)benzamide]	43	–
51 to 100	–	53	–	O=C(Nc1ccc(C(F)(F)F)cc1[N+](=O)[O-])c1cc(Cl)ccc1O [Example 36, 5-chloro-2-hydroxy-N-(2-nitro-4-trifluoromethyl-phenyl)-benzamide]	–	inhibition at 0.8 µM [2, 3]: 76%
33	78	–	–	O=C(Nc1cc(C(F)(F)F)cc(C(F)(F)F)c1)c1cc([N+](=O)[O-])ccc1O [Example 55, N-(3,5-bis(trifluoromethyl)phenyl)-2-hydroxy-5-nitrobenzamide]	26	–
51 to 100	–	58	–	O=C(Nc1cc(C(F)(F)F)c(Br)c(C(F)(F)F)c1)c1cc(Cl)ccc1O [Example 65, N-(4-bromo-3,5-bis(trifluoromethyl)phenyl)-5-chloro-2-hydroxybenzamide]	53	Intracellular protease activity Inhibition % 30 uM [1]: 85%
51 to 100	88	67	99	COc1cc(NC(=O)c2cc(Cl)ccc2O)cc(C(F)(F)F)c1 [Example 6, 5-chloro-2-hydroxy-N-(3-methoxy-5-(trifluoromethyl)phenyl)benzamide]	–	inhibition at 0.8 µM [2, 3]: 49%

Compound	inhibition at 10 µM [1] [%]	inhibition at 30 µM [1] [%]	Intracellular protease activity Inhibition % 10 uM [1] [%]	inhibition at 100 µM [1] [%]	inhibition at 0.1 µM [2, 4] [%]	other results
O=C(Nc1cc(C(F)(F)F)cc(C(F)(F)F)c1)c1cc(Cl)ccc1O [Example 1, N-(3,5-bis(trifluoromethyl)phenyl)-5-chloro-2-hydroxybenzamide]	51 to 100	96	64	100	–	inhibition at 0.8 µM ([2]; SW480, 48 h): 76%
